The source of these data is patent publication US20240217963A1, “RECEPTOR-INTERACTING PROTEIN 1 INHIBITORS, PREPARATIONS, AND USES THEREOF” (SIRONAX LTD., priority 2021, published 2024).

This assay deals with T1, RIP1 (Homo sapiens, UniProt Q13546).
T1 sequence (Q13546 1-671): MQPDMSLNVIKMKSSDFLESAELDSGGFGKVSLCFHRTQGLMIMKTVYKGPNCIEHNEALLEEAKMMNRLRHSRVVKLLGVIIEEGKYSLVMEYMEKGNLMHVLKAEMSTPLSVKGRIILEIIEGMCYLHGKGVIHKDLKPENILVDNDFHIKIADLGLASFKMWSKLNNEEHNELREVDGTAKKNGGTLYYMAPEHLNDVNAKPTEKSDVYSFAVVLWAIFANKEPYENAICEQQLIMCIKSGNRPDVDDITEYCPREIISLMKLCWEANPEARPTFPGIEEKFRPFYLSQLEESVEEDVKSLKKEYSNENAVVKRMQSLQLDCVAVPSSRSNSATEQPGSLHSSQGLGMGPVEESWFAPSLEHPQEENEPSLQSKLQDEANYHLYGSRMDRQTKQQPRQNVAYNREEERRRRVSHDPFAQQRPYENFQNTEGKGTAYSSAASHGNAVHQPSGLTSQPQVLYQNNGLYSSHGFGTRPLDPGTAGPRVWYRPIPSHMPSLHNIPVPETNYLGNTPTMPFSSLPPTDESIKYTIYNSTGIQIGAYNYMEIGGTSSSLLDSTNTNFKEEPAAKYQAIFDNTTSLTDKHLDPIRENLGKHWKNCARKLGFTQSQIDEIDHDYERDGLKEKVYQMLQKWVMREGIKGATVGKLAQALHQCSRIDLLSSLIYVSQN
Description: Cellular RIP1 inhibitory activity: HT-29 necroptosis (TNFα/SMAC mimetic/zVAD-FMK) CellTiter-Glo viability assay. Conditions: HT-29 cells, TNF-α 10 ng/ml + SMAC mimetic 6 μM + zVAD-FMK 10 μM, 20 hours, geometric mean, read-out: EC50 Values of in vitro Cellular RIP1 Inhibitory Activity. In kind it is cell-based.

On to `Cc1nc(C)n(-c2nc(N3CCC(C(=O)NCc4cc(F)cc(F)c4F)CC3)ncc2F)n1` [Compound 5, 1-(4-(3,5-dimethyl-1H-1,2,4-triazol-1-yl)-5-fluoropyrimidin-2-yl)-N-(2,3,5-trifluorobenzyl)piperidine-4-carboxamide], for which the EC50 is 0.1 to 100 nM.

Regarding `Cc1cnn(C)c1-c1nc(N2CCC(C(=O)NCc3cc(C)n(C)n3)CC2)ncc1F` [Compound 43, N-((1,5-dimethyl-1H-pyrazol-3-yl)methyl)-1-(4-(1,4-dimethyl-1H-pyrazol-5-yl)-5-fluoropyrimidin-2-yl)piperidine-4-carboxamide], the EC50 was in the range of 1000 to 10000 nM.

For `Cc1nnc(CNC(=O)C2CCN(c3ncc(F)c(-c4c(C)cnn4C)n3)CC2)s1` [Compound 46, 1-(4-(1,4-dimethyl-1H-pyrazol-5-yl)-5-fluoropyrimidin-2-yl)-N-((5-methyl-1,3,4-thiadiazol-2-yl)methyl)piperidine-4-carboxamide], the EC50 lay within 1000 to 10000 nM. As for `Cc1cnn(C)c1-c1nc(N2CCC(C(=O)N(C)Cc3nc(C)c(C)s3)CC2)ncc1F` [Compound 90, 1-(4-(1,4-dimethyl-1H-pyrazol-5-yl)-5-fluoropyrimidin-2-yl)-N-((4,5-dimethylthiazol-2-yl)methyl)-N-methylpiperidine-4-carboxamide], the figure is 0.1 to 100 nM; as for `Cc1cnn(C)c1-c1nc(N2CCC(C(=O)N(O)Cc3cncc(C#N)c3)CC2)ncc1F` [Compound 52, N-((5-cyanopyridin-3-yl)methyl)-1-(4-(1,4-dimethyl-1H-pyrazol-5-yl)-5-fluoropyrimidin-2-yl)-N-hydroxypiperidine-4-carboxamide], 0.1 to 100 nM; as for `O=C(C1CCN(c2ncc(F)cn2)CC1)N(O)Cc1cc(F)cc(F)c1` [Compound 30, N-(3,5-difluorobenzyl)-1-(5-fluoropyrimidin-2-yl)-N-hydroxypiperidine-4-carboxamide], 100 to 1000 nM. For `[2H]C([2H])([2H])N(C(=O)C1CCN(c2ncc(F)c(-c3c(C)cnn3C)n2)CC1)C([2H])([2H])c1cc(F)cc(F)c1F` [Compound 74, 1-(4-(1,4-dimethyl-1H-pyrazol-5-yl)-5-fluoropyrimidin-2-yl)-N-(methyl-d3)-N-((2,3,5-trifluorophenyl)methyl-d2)piperidine-4-carboxamide] the value was 0.1 to 100 nM. For `Cc1nc(C)n(-c2nc(N3CCC(C(=O)N(C)Cc4cc(F)cc(F)c4F)CC3)ncc2F)n1` [Compound 65, 1-(4-(3,5-dimethyl-1H-1,2,4-triazol-1-yl)-5-fluoropyrimidin-2-yl)-N-methyl-N-(2,3,5-trifluorobenzyl)piperidine-4-carboxamide] the value was 0.1 to 100 nM; for `Cc1cnn(C)c1-c1nc(N2CCC(C(=O)N(O)Cc3cc(F)cc(F)c3)CC2)ncc1F` [Compound 4, N-(3,5-difluorobenzyl)-1-(4-(1,4-dimethyl-1H-pyrazol-5-yl)-5-fluoropyrimidin-2-yl)-N-hydroxypiperidine-4-carboxamide], 0.1 to 100 nM; for `Cc1cnn(C)c1-c1nc(N2CCC(C(=O)N(C)Cc3cc(F)cc(F)c3)CC2)ncc1F` [Compound 85, N-(3,5-difluorobenzyl)-1-(4-(1,4-dimethyl-1H-pyrazol-5-yl)-5-fluoropyrimidin-2-yl)-N-methylpiperidine-4-carboxamide], 0.1 to 100 nM. With `Cc1cnn(C)c1-c1ncc(F)c(N2CCC(C(=O)N(O)Cc3cc(F)cc(F)c3)CC2)n1` [Compound 55, N-(3,5-difluorobenzyl)-1-(2-(1,4-dimethyl-1H-pyrazol-5-yl)-5-fluoropyrimidin-4-yl)-N-hydroxypiperidine-4-carboxamide], the EC50 fell in the range of 0.1 to 100 nM. For `CCN(Cc1cc(C)n(C)n1)C(=O)C1CCN(c2ncc(F)c(-c3c(C)cnn3C)n2)CC1` [Compound 80, N-((1,5-dimethyl-1H-pyrazol-3-yl)methyl)-1-(4-(1,4-dimethyl-1H-pyrazol-5-yl)-5-fluoropyrimidin-2-yl)-N-ethylpiperidine-4-carboxamide] the value was 100 to 1000 nM.

On to `CCN(Cc1ccn(C)n1)C(=O)C1CCN(c2ncc(F)c(-c3c(C)cnn3C)n2)CC1` [Compound 82, 1-(4-(1,4-dimethyl-1H-pyrazol-5-yl)-5-fluoropyrimidin-2-yl)-N-ethyl-N-((1-methyl-1H-pyrazol-3-yl)methyl)piperidine-4-carboxamide], for which the EC50 lay within 0.1 to 100 nM. For `Cc1cnn(C)c1-c1cc(N2CCC(C(=O)N(C)Cc3nccs3)CC2)c(F)cn1` [Compound 86, 1-(2-(1,4-dimethyl-1H-pyrazol-5-yl)-5-fluoropyridin-4-yl)-N-methyl-N-(thiazol-2-ylmethyl)piperidine-4-carboxamide] the value was 0.1 to 100 nM; for `[2H]C([2H])([2H])N(C(=O)C1CCN(c2ncc(F)c(-n3nc(C)nc3C)n2)CC1)C([2H])([2H])c1cc(F)cc(F)c1F` [Compound 76, 1-(4-(3,5-dimethyl-1H-1,2,4-triazol-1-yl)-5-fluoropyrimidin-2-yl)-N-(methyl-d3)-N-((2,3,5-trifluorophenyl)methyl-d2)piperidine-4-carboxamide], 0.1 to 100 nM; for `Cc1cnn(C)c1-c1cc(N2CCC(C(=O)NCc3cc(F)cc(F)c3)CC2)ncn1` [Compound 42, N-(3,5-difluorobenzyl)-1-(6-(1,4-dimethyl-1H-pyrazol-5-yl)pyrimidin-4-yl)piperidine-4-carboxamide], 100 to 1000 nM. For `[2H]C([2H])([2H])N(C(=O)C1CCN(c2ncc(F)c(-c3ncnn3C)n2)CC1)C([2H])([2H])c1cc(F)cc(F)c1F` [Compound 75, 1-(5-fluoro-4-(1-methyl-1H-1,2,4-triazol-5-yl)pyrimidin-2-yl)-N-(methyl-d3)-N-((2,3,5-trifluorophenyl)methyl-d2)piperidine-4-carboxamide] the value was 0.1 to 100 nM; for `Cc1nc(C)n(-c2nc(N3CCC(C(=O)N(O)Cc4ccccn4)CC3)ncc2F)n1` [Compound 7, 1-(4-(3,5-dimethyl-1H-1,2,4-triazol-1-yl)-5-fluoropyrimidin-2-yl)-N-h ydroxy-N-(pyridin-2-ylmethyl)piperidine-4-carboxamide], 100 to 1000 nM; for `Cn1ncnc1-c1nc(N2CCC(C)(C(=O)N(O)Cc3cc(F)cc(F)c3)CC2)ncc1F` [Compound 18, N-(3,5-difluorobenzyl)-1-(5-fluoro-4-(1-methyl-1H-1,2,4-triazol-5-yl)pyrimidin-2-yl)-N-hydroxy-4-methylpiperidine-4-carboxamide], 0.1 to 100 nM. For `Cc1cnn(C)c1-c1nc(N2CCC(C(=O)N(O)Cc3cccnc3)CC2)ncc1F` [Compound 38, 1-(4-(1,4-dimethyl-1H-pyrazol-5-yl)-5-fluoropyrimidin-2-yl)-N-hydroxy-N-(pyridin-3-ylmethyl)piperidine-4-carboxamide] the value was 0.1 to 100 nM; for `CCN(Cc1cnn(C)c1)C(=O)C1CCN(c2ncc(F)c(-c3c(C)cnn3C)n2)CC1` [Compound 84, 1-(4-(1,4-dimethyl-1H-pyrazol-5-yl)-5-fluoropyrimidin-2-yl)-N-ethyl-N-((1-methyl-1H-pyrazol-4-yl)methyl)piperidine-4-carboxamide], 100 to 1000 nM; for `Cc1nc(C)n(-c2nc(N3CCC(C(=O)N(C)Cc4cc(F)cc(F)c4)CC3)ncc2F)n1` [Compound 64, N-(3,5-difluorobenzyl)-1-(4-(3,5-dimethyl-1H-1,2,4-triazol-1-yl)-5-fluoropyrimidin-2-yl)-N-methylpiperidine-4-carboxamide], 0.1 to 100 nM. For `Cc1cnn(C)c1-c1nc(N2CCC(C(=O)N(O)Cc3ccncc3F)CC2)ncc1F` [Compound 11, 1-(4-(1,4-dimethyl-1H-pyrazol-5-yl)-5-fluoropyrimidin-2-yl)-N-((3-fluoropyridin-4-yl)methyl)-N-hydroxypiperidine-4-carboxamide], the EC50 lay in the range of 0.1 to 100 nM. For `Cc1cnn(C)c1-c1nc(N2CCC(C(=O)N(O)Cc3ccc(F)nc3)CC2)ncc1F` [Compound 26] the value was 0.1 to 100 nM. For `Cn1ncnc1-c1nc(N2CCC(F)(C(=O)N(O)Cc3cc(F)cc(F)c3)CC2)ncc1F` [Compound 19, N-(3,5-difluorobenzyl)-4-fluoro-1-(5-fluoro-4-(1-methyl-1H-1,2,4-triazol-5-yl)pyrimidin-2-yl)-N-hydroxypiperidine-4-carboxamide] the value was 0.1 to 100 nM; for `Cc1cnn(C)c1-c1nc(N2CCC(C(=O)N(C)Cc3cncs3)CC2)ncc1F` [Compound 98, 1-(4-(1,4-dimethyl-1H-pyrazol-5-yl)-5-fluoropyrimidin-2-yl)-N-methyl-N-(thiazol-5-ylmethyl)piperidine-4-carboxamide], 0.1 to 100 nM; for `Cc1cnn(C)c1-c1nc(N2CCC(C(=O)NCc3nc(C)c(C)s3)CC2)ncc1F` [Compound 49, 1-(4-(1,4-dimethyl-1H-pyrazol-5-yl)-5-fluoropyrimidin-2-yl)-N-((4,5-dimethylthiazol-2-yl)methyl)piperidine-4-carboxamide], 100 to 1000 nM. For `Cc1cnn(C)c1-c1nc(N2CCC(C(=O)N(O)Cc3ccccn3)CC2)ncc1F` [Compound 31, 1-(4-(1,4-dimethyl-1H-pyrazol-5-yl)-5-fluoropyrimidin-2-yl)-N-hydroxy-N-(pyridin-2-ylmethyl)piperidine-4-carboxamide] the value was 0.1 to 100 nM.

Broadly, the EC50 is the concentration that produces a half-maximal response.
